# Data from article PMC11310889, “Ribosomal translation of fluorinated non-canonical amino acids for de novo biologically active fluorinated macrocyclic peptides” (Chemical Science, 2024).
# Legend:
# Format in all cases: cell-based, Escherichia coli
# [1] = tested on: E. coli W3110; assay: Scanning electron microscopy of cell morphology; conditions: E. coli W3110 logarithmic-phase, 4 h treatment at 2 μM and 5 μM (Fig. 5B, S11)
# Method: Thaw the previously preserved E. coli W3110 cells from the -80 °C freezer. […]
# Scanning electron microscopy
# Thaw the previously preserved E. coli W3110 cells from the -80°C freezer. Scrape a small amount and inoculate it into 1 mL of LB liquid medium. Incubate overnight in a 37°C shaker. The next day, inoculate the strain into fresh LB liquid medium at a 1:100 ratio and incubate at 37°C until the OD600 reaches approximately 0.47 to 0.53. Take 500 μL of E. coli W3110 cells, centrifuge for 10 min at 4000 rpm, and discard the supernatant. Resuspend the cells in 500 μL of PBS, then centrifuge again at 4000 rpm for 10 min and discard the supernatant. Dissolve various macrocyclic peptides in DMSO and dilute to the required concentration. Resuspend the untreated group in 500 μL of PBS.
# For the peptide treatment group, resuspend in 495 μL of ddH2O, add 5 μL of 0.2 mM or 0.5 mM peptides, mix well, and let react for 4 h.
# After the treament, spot 4 μL of the sample on plates. Perform the first ten-fold dilution and mix, then continue with the second to fifth ten-fold dilutions. Incubate the plates inverted overnight in a 37°C incubator. Scan and count the colonies. For the remaining 492 μL, centrifuge at 6100g for 10 min, discard the supernatant, add 500 μL of ddH2O, and let it stand for 15 min. Centrifuge again at 6100g for 10 min, discard the supernatant, and add 500 μL of ddH2O containing 2.5% glutaraldehyde. Resuspend and fix the cells overnight at 4°C. Centrifuge at 6100g for 10 min, remove the supernatant, and wash twice with ddH2O, letting it stand for 15 min each time, followed by centrifugation at 6100g for 10 min. Discard the supernatant. Dehydrate the sample with ethanol at concentration gradients of 30%, 60%, and 90%, without resuspension, centrifuging at 6100g for […]
# 10 min and discarding the supernatant after each step. Finally, use 100% ethanol, rest for 15 min, centrifuge at 6100g for 10 min, discard the supernatant, and repeat with 100% ethanol, leaving about 10 μL. Then the critical point was dried and sprayed with gold, and the images were observed by […]
# Prediction of binding sites between peptides and the BAM complex
# Firstly, the fpocket algorithm was used, a rapid method for pocket prediction based on the three-dimensional structure of BAM complex (PDB ID: 5AYW). This method establishes a grid surrounding the protein, positioning alpha spheres on grid points devoid of spatial conflicts with protein atoms, subsequently utilizing a clustering algorithm to ascertain whether these regions constitute potential binding pockets. Alpha spheres were designated with radii ranging from 3.4Å to 6.2Å, with a prerequisite of at least 15 alpha spheres for a region to be considered a pocket. […]
# PepNN evaluated each amino acid for its potentiality as a peptide binding site. […]
# [2] = tested on: E. coli W3110; assay: Propidium iodide (PI) assay of membrane permeability; conditions: E. coli W3110 logarithmic-phase, 15 min treatment with 5 μM peptide, PI 25 μg/mL 15 min (Fig. 5A)
# Method: Propidium Iodide (PI) assay
# Thaw the previously preserved E. coli W3110 cells from the -80 °C freezer. Scrape a small amount and inoculate it into 1 mL of LB liquid medium. Culture overnight in a 37°C shaker. Next day, inoculate the strain into fresh LB liquid medium at a 1:100 ratio and incubate at 37 °C until the OD600 reaches approximately 0.47 to 0.53. Take 100 μL of the E. coli W3110 cells and centrifuge for 2 min at 13,000 rpm. Discard the supernatant. For the untreated group, resuspend the cells in 100 μL of PBS. For the peptide treatment group, resuspend the cells in 99 μL of ddH2O and add 1 […]
# μL of 0.5 mM of the different peptides. Mix thoroughly and let react for 15 min. After the treatment, take 80 μL of each sample and incubate with PI at a final concentration of 25 μg/mL for 15 min.
# After incubation, wash the samples with the same amount of PBS, centrifuge, and resuspend at a 10-fold concentration. Observe the images using a Nikon Eclipse Ci-L Plus microscope. […]
# (§1) Incubate overnight in a 37°C shaker. […]
# Centrifuge again at
# 6100g for 10 min, discard the supernatant, and add 500 μL of ddH2O containing 2.5% glutaraldehyde. Resuspend and fix the cells overnight at 4°C. Centrifuge at 6100g for 10 min, remove the supernatant, and wash twice with ddH2O, letting it stand for 15 min each time, followed by centrifugation at 6100g for 10 min. Discard the supernatant. Dehydrate the sample with ethanol at concentration gradients of 30%, 60%, and 90%, without resuspension, centrifuging at 6100g for […]
# [3] = tested on: E. coli W3110; assay: Protein leakage assay; conditions: E. coli W3110, 5 μM peptide, 15 min, pellet analysed by SDS-PAGE, compared to R9-treated sample (Fig. S10)
# Method: Thaw the previously preserved E. coli W3110 cells from the -80 °C freezer. Scrape a small amount and inoculate it into 1 mL of LB liquid medium. Incubate overnight in a 37°C shaker. Next day, transfer the culture to fresh LB liquid medium at a 1:100 inoculation ratio and incubate at 37 °C until the OD600 reaches approximately 0.47 to 0.53. Collect 300 μL of the E. coli W3110 cells and centrifuge for 2 min at 13,000 rpm, discarding the supernatant afterward. Resuspend the untreated group in 300 μL of PBS, and the peptide treatment group in 297 μL of ddH2O. Add 3 μL of 0.5 mM different peptides to the treatment group, mix well, and allow to react for 15 min. After the treatment, resuspend all samples in 15 μL of 6×SDS loading buffer and 15 μL of 10% SDS. All samples were heated at 99.9°C for 15 min, followed by 10% SDS-PAGE analysis and staining with Coomassie brilliant blue R250. […]
# as §1
Substance,morphological changes by scanning electron microscopy [1],PI red fluorescence (cell membrane permeability) [2],cellular protein leakage [3]
"Ac-(4-F-DPhe)IWHKSLT(4-F-DPhe)NYLHTCGS(Acp)RRRRRRRRR-NH2 (sidechain bridge or staple) [BAM-f2-R9, BAM-f2 conjugated with cell-penetrating peptide R9]",severe damage in the cell shape and even lysis,notable red fluorescence intensity,partial cellular protein leakage
"Ac-(4-F-DPhe)KHFIY(4-F-β-Phe)YRSPICGS(Acp)RRRRRRRRR-NH2 (sidechain bridge or staple) [BAM-β3-R9, BAM-β3 conjugated with cell-penetrating peptide R9]",severe damage in the cell shape and even lysis,notable red fluorescence intensity,partial cellular protein leakage
